Results on one compound are retold here after patent US20170105981A1, “METHODS FOR STABILIZING HYPOXIA INDUCIBLE FACTOR-2 ALPHA AS A METHOD FOR TREATING CANCER” (The Ohio State Innovation Foundation, priority 2011, published 2017).

Test [1] deals with VEGF mRNA. As to the kind of experiment: VEGF mRNA expression (qPCR) in wild type murine embryonic fibroblasts. The settings on record: hypoxic conditions (1% O2), 1, 10 and 100 μM, vs. hypoxia control, FIG. 1A. In kind it is cell-based. As for the experimental part: (§1) Total RNA was isolated from tissues and cells by using TRIzol™ Reagent (Invitrogen) and the RNeasy kit (Qiagen), respectively. 1 μg RNA was used for reverse transcription using SuperScript II First-Strand Synthersis System (Invitrogen). cDNA's were amplified in a SYR Green or TaqMan Universal Master Mix (Applied Biosystems). Quantitative PCR (qPCR) was performed on ABI Prism 7700 sequence detection system. PCR conditions are: 10 min at 95° C., 40 cycles of 15 seconds at 95° C. and 1 minute at 60° C. The relative amount of mRNA was calculated after normalization to β-actin.
(§2) Cells were cultured in DMEM (#11965-092, Invitrogen) supplemented with 10% fetal bovine serum (Invitrogen), 100 U/mL penicillin and […] streptomycin. For glucose deprivation, DMEM without glucose (#11966-025, Invitrogen) was used.
(§3) Mouse embryonic fibroblasts (MEFs) were isolated from E12.5 embryos and immortalized by stable transfection with SV40 large T antigen.
On the technique in general: Quantitative PCR measures a nucleic acid by following its amplification.

For test [2], the system named is VEGF mRNA. As to the kind of experiment: VEGF mRNA expression (qPCR) in HIF-1α−/− fibroblasts. In kind it is cell-based, murine. The settings on record: hypoxic conditions (1% O2), 1, 10 and 100 μM, vs. hypoxia control, FIG. 1B. As to the method:
as §1, §2, §3

Another test relates to sVEGFR-1. As to the kind of experiment: sVEGFR-1 transcription in bone marrow-derived macrophages (LysMcre control vs HIF-2αflox/flox/LysMcre). It is filed as cell-based, mice. The settings on record: p=0.036, FIG. 11F. An excerpt: HIF-2α^flox/flox mice (originally developed by Dr. Celeste Simon, University of Pennsylvania) and LysMcre recombinase mice (originally developed by Irmgard Foerster, University of Duesseldorf) (both purchased from The Jackson Laboratory, Bar Harbor, Me.) were crossed to generate mice homozygous for both LysMcre and the floxed HIF-2α allele. LysMcre recombinase mice, which express no floxed alleles, were used as controls. Deletion of HIF-2α in HIF-2α^flox/flox/LysMcre macrophages, but not the LysMcre control macrophages, was confirmed at the transcript level by real-time PCR.
To generate bone marrow-derived macrophages (BDMs), femoral bone marrow was isolated and progenitor cells were plated in RPMI-1640 supplemented with 10% FBS, 1% PSA, 10 μg/mL of polymyxin B, and 20 ng/mL of recombinant murine M-CSF. Cells were cultured for 5 days with the addition of fresh M-CSF every other day. […]
Human monocytes were left untreated or were stimulated with 100 ng/mL GM-CSF at normoxia or at 0.5% O2. […] Data were analyzed according to the comparative threshold method and normalized against the β-actin internal control transcript. Results are semi-quantitative and represent the fold difference in transcript levels in a particular sample as compared with levels in untreated cells from the same donor. […]

The test system of test [3] is A375 human melanoma cells. Description: A375 human melanoma tumors in SCID mice. It is filed as in vivo. The settings on record: at the time of sacrifice; stabilizer 17 mg/kg, docetaxel 1 mg/kg, IP 3 times per week. As for the experimental part: 6-8-week-old C57BL/6 mice or SCID mice were injected with 1×10^5 B16F10 murine melanoma cells or 1×10^6 A375 human melanoma cells, respectively, subcutaneously on the left flank. […] Tumor diameters were measured 3 times per week with calipers, and tumor volumes will be calculated as follows: Tumor volume=0.5×[(large diameter)×(small diameter)^2].
In the study, immunocompromised SCID mice were inoculated with A375 human melanoma tumors subcutaneously. Starting when the tumors became palpable (7 days after injection), mice were treated with either the cytotoxic chemotherapy docetaxel or with the disclosed HIF-2α stabilizer. The disclosed HIF-2α stabilizer was given at a dose of 17 mg/kg, and the docetaxel was given at 1 mg/kg. Both drugs were given IP 3 times per week. […] At the time of sacrifice, the tumors in the mice that received only the disclosed HIF-2α stabilizer were approximately 78% of the size of the control tumors, the tumors of the mice that received only chemotherapy were approximately 50% of the size of the control tumors, and the tumors of the mice that received both drugs were approximately 16% of the size of the control tumors.

For the compound `O=C(O)CNC(=O)c1ncc(-c2cccc(F)c2)cc1O` [disclosed HIF-2α stabilizer, {[5-(3-Fluorophenyl)-3-hydroxypyridine-2-carbonyl]amino} acetic acid], the “VEGF mRNA (relative amount)” value in the test on VEGF mRNA [1] and in the test on VEGF mRNA [2] was “dramatic reduction” each time. Moreover, in the test on sVEGFR-1, the sVEGFR-1 transcription entry is given as “induced”. Further, the “tumor size as % of the size of the control tumors” value in test [3] was “approximately 78%”.
